This series concerns GRN mRNA. Description: GRN mRNA qPCR in SK-N-AS cells transfected with ASOs. The class given is cell-based, human. The settings on record: SK-N-AS; for hGRN mRNA FC / 120 nM FC (GRN mRNA): 120 nM; for hit identification (GRN mRNA dose escalation): 3.75 nM to 120 nM. The essentials: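 Human neuroblastoma SK-N-AS cells transfected with ASOs at increasing concentrations (20 to 160 nM in initial titrations); GRN mRNA quantified by qPCR after 48 hours. Normalized to GAPDH and PPIA, fold change relative to steric non-targeting control ASO(s) (sNTC/CO-1589, with CO-3772 and CO-1929 in some series).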

Setting [1] is: Table 11, 48 hours, normalized to CO-1589.
The mark [2] stands for this setting: Table 9, 48 hours post-transfection, normalized to CO-1589.
[3] abbreviates: Table 10, 48 hours, normalized to CO-1589.
The mark [4] stands for this setting: Table 5, normalized to CO-3772, CO-1589 and CO-1929.
[5] abbreviates: Table 3, normalized to CO-3772 and CO-1589 (sNTC1).
Where [6] appears, read: Table 7, normalized to CO-1589 (sNTC1).
Where [7] appears, read: Table 12, normalized to CO-1589.
The mark [8] stands for this setting: Table 13, normalized to CO-1589.

The values that follow come from patent US20250243488A1, “METHODS OF MODULATING PROGRANULIN EXPRESSION USING ANTISENSE OLIGONUCLEOTIDES TARGETING REGULATORY RNAS” (Camp4 Therapeutics Corporation, priority 2022, published 2025).

Oligonucleotides are written 5' to 3', each unit as a sugar letter and its base; * is a phosphorothioate linkage, no mark a phosphodiester; rarer units and linkages stand in square brackets, end groups in braces. Plain capitals give the bases only. e = 2'-O-(2-methoxyethyl) (MOE); l = locked nucleic acid (LNA); [5mC] = 5-methylcytosine; d = 2'-deoxy (DNA)

Consider “CO-6431: ASO designed to target an intragenic enhancer RNA (eRNA) (eA*e[5mC]*eG*eG*eA*e[5mC]*e[5mC]*eT*e[5mC]*e[5mC]*eT*e[5mC]*eA*e[5mC]*eT*eA*eA*eG*e[5mC]*eT)”, for which, under setting [1], the “hGRN mRNA FC” value is 0.8 FC.
In the case of “CO-4637: ASO designed to target intergenic enhancers (eRNA) (antisense eT*eA*eA*eG*eG*eT*eG*eT*eA*eG*eG*eA*e[5mC]*eA*eG*eT*e[5mC]*eT*eG*eA)”, the “hit identification (GRN mRNA dose escalation)” value (48 hours) is recorded as “initial hits”. For the same substance, under setting [2], the “hGRN mRNA FC” value was 0.9 FC. In addition, under setting [3], the “3.75 nM FC (GRN mRNA)” value came to 1.1 FC, the “7.5 nM FC (GRN mRNA)” value came out at 1.1 FC, the “15 nM FC (GRN mRNA)” value was found to be 1.2 FC and the “30 nM FC (GRN mRNA)” value stood at 1.1 FC. Moreover, under setting [3], the “60 nM FC (GRN mRNA)” value worked out at 1.2 FC and the “120 nM FC (GRN mRNA)” value was determined as 1.3 FC.
In the case of “CO-4603: ASO designed to target intergenic enhancers (eRNA) (antisense e[5mC]*e[5mC]*eA*e[5mC]*eT*eT*e[5mC]*eG*e[5mC]*eG*eT*eT*eT*eA*eG*eA*eA*e[5mC]*eT*eT)”, under setting [2], the “hGRN mRNA FC” value worked out at 1.3 FC.
As for “CO-4453: mixed PO/PS bond version of CO-3423 (antisense eG*eG*eAe[5mC]eT*eT*eG*eG*eG*eA*eG*eT*eG*eG*eT*eGeAe[5mC]*eT*eG)”, under setting [4], the “30 nM FC (GRN mRNA)” value turned out to be 1.4 FC, the “60 nM FC (GRN mRNA)” value is 1.9 FC and the “120 nM FC (GRN mRNA)” value was found to be 1.9 FC.
Regarding “CO-4355: LNA/PS modified ASO based on CO-3423 (antisense eG*eG*lA*e[5mC]*lT*eT*lG*eG*lG*eA*lG*eT*lG*eG*lT*eG*lA*e[5mC]*eT*eG)”, under setting [5], the “30 nM FC (GRN mRNA)” value was 1.6 FC, the “60 nM FC (GRN mRNA)” value is recorded as 1.8 FC and the “120 nM FC (GRN mRNA)” value is reported as 1.9 FC.
Turning to “CO-5267: CO-3423 with additional LNA tiling and PO bond modifications (antisense GGACTTGGGAGTGGTGACTG; 2'-MOE, mixed PS/PO, 5-methylcytosine; listed as RNA; modified_base 1..9: mod_base = OTHER; note = Phosphorothioate linkage; modified_base 17..20: mod_base = OTHER; modified_base 1..20: mod_base = OTHER; note = 2'-O-(2-methoxyethyl) ribonucleotide; modified_base 4)”, under setting [6], the “7.5 nM FC (GRN mRNA)” value turned out to be 1.0 FC, the “30 nM FC (GRN mRNA)” value is recorded as 1.2 FC, the “60 nM FC (GRN mRNA)” value was 1.7 FC and the “120 nM FC (GRN mRNA)” value was found to be 1.9 FC. The “13 nM FC (GRN mRNA)” value (Table 7, 13 nM, normalized to CO-1589 (sNTC1)) turned out to be 1.0 FC. Besides, for the setting “Table 7, 150 nM, normalized to CO-1589 (sNTC1)”, the “150 nM FC (GRN mRNA)” value amounted to 2.3 FC.
For the substance “CO-4629: ASO designed to target intergenic enhancers (eRNA) (antisense eA*eT*eG*eG*e[5mC]*eA*eA*eA*eT*eG*eA*e[5mC]*e[5mC]*eT*eT*e[5mC]*eG*eG*eT*eA)”, under setting [2], the “hGRN mRNA FC” value stood at 1.1 FC.
On the same count and under the same terms, the result for “CO-4647: ASO designed to target intergenic enhancers (eRNA) (antisense e[5mC]*eT*eA*eA*eG*e[5mC]*eG*eT*eT*eT*e[5mC]*eT*e[5mC]*eT*eA*eG*eT*e[5mC]*eA*eT)” reads 0.8 FC.
“CO-6440: ASO designed to target an intragenic enhancer RNA (eRNA) (eG*eT*eT*e[5mC]*eA*eT*eG*e[5mC]*eT*eA*e[5mC]*e[5mC]*e[5mC]*e[5mC]*e[5mC]*eT*eA*eG*eT*eG)”: the “hGRN mRNA FC” value under setting [1] is 1.0 FC.
On to “CO-6515: ASO based on parent ASO CO-3462 (antisense eT*eA*eGeGeAeGeAeAeTe[5mC]eGe[5mC]eT*eT*eT*eG*eG*eG*eA*eG)”, for which, under setting [7], the “30 nM FC (GRN mRNA)” value amounted to 1.2 FC, the “60 nM FC (GRN mRNA)” value worked out at 1.8 FC and the “120 nM FC (GRN mRNA)” value is 1.7 FC.
On to “CO-4619: ASO designed to target intergenic enhancers (eRNA) (antisense eT*eG*eA*eT*eA*eT*eA*eG*eA*eG*eA*eT*e[5mC]*eT*eG*e[5mC]*eA*eG*e[5mC]*e[5mC])”, for which the “hit identification (GRN mRNA dose escalation)” value (48 hours) was “initial hits”. The “hGRN mRNA FC” value under setting [2] is 1.3 FC. Also, under setting [3], the “3.75 nM FC (GRN mRNA)” value is on record as 1.0 FC, the “7.5 nM FC (GRN mRNA)” value is 1.1 FC, the “15 nM FC (GRN mRNA)” value turned out to be 1.3 FC and the “30 nM FC (GRN mRNA)” value turned out to be 1.2 FC. Also, under setting [3], the “60 nM FC (GRN mRNA)” value is given as 1.2 FC and the “120 nM FC (GRN mRNA)” value is 1.6 FC.
Turning to “CO-6447: ASO designed to target an intragenic enhancer RNA (eRNA) (eA*eT*eG*eG*eT*eT*e[5mC]*eT*eA*e[5mC]*e[5mC]*eT*eG*e[5mC]*eT*eG*eT*eG*eA*eG)”, under setting [1], the “hGRN mRNA FC” value is listed as 1.2 FC.
As for “CO-6516: ASO based on parent ASO CO-3462 (antisense eT*eA*eGeGeAeGeAeAeTe[5mC]eGe[5mC]eTeTeT*eG*eG*eG*eA*eG)”, under setting [7], the “30 nM FC (GRN mRNA)” value was found to be 1.0 FC, the “60 nM FC (GRN mRNA)” value is given as 1.4 FC and the “120 nM FC (GRN mRNA)” value came out at 1.0 FC.
As for “CO-4588: ASO designed to target intergenic enhancers (eRNA) (antisense eG*e[5mC]*eT*eG*eG*eT*eT*eT*e[5mC]*eT*e[5mC]*eT*eG*eT*eT*eA*eG*eG*eA*e[5mC])”, the “hGRN mRNA FC” value under setting [2] was 0.9 FC.
In the case of “CO-6383: ASO based on parent ASO CO-3462 (antisense eT*eA*eG*eG*eA*dG*dA*dA*dT*d[5mC]*dG*d[5mC]*dT*dT*dT*eG*eG*eG*eA*eG)”, under setting [7], the “30 nM FC (GRN mRNA)” value was determined as 1.2 FC, the “60 nM FC (GRN mRNA)” value is recorded as 1.0 FC and the “120 nM FC (GRN mRNA)” value worked out at 1.2 FC.
Regarding “CO-6386: ASO based on parent ASO CO-3462 (antisense eG*e[5mC]*eG*eA*eG*e[5mC]*e[5mC]*eA*eG*e[5mC]*eT*e[5mC]*eA*eG*eT*eA*eG*e[5mC]*eT*e[5mC])”, under setting [7], the “30 nM FC (GRN mRNA)” value is given as 1.2 FC, the “60 nM FC (GRN mRNA)” value was determined as 0.9 FC and the “120 nM FC (GRN mRNA)” value amounted to 1.1 FC.
For the substance “CO-4606: ASO designed to target intergenic enhancers (eRNA) (antisense eA*e[5mC]*eG*eT*eG*eA*eA*eG*eA*eG*e[5mC]*e[5mC]*eG*eG*eA*eG*eA*eT*eT*e[5mC])”, under setting [2], the “hGRN mRNA FC” value was 1.4 FC. Under setting [3], the “3.75 nM FC (GRN mRNA)” value amounted to 1.1 FC, the “7.5 nM FC (GRN mRNA)” value is recorded as 1.1 FC, the “15 nM FC (GRN mRNA)” value came to 1.2 FC and the “30 nM FC (GRN mRNA)” value came out at 1.3 FC. In addition, under setting [3], the “60 nM FC (GRN mRNA)” value came out at 1.4 FC and the “120 nM FC (GRN mRNA)” value was determined as 1.7 FC.
Take “CO-6387: ASO based on parent ASO CO-3462 (antisense eT*eA*eG*eG*eA*dG*dA*dA*eT*d[5mC]*dG*e[5mC]*dT*dT*dT*eG*eG*eG*eA*eG)”: under setting [7], the “30 nM FC (GRN mRNA)” value is on record as 1.3 FC, the “60 nM FC (GRN mRNA)” value is on record as 1.0 FC and the “120 nM FC (GRN mRNA)” value is 1.1 FC.
For “CO-6423: ASO based on parent ASOs CO-4363 and CO-4364 (eG*eG*eA*e[5mC]*lT*eT*eG*eG*eG*lA*eG*eT*eG*eG*lT*eG*eA*e[5mC]*eT*lG*eA*eA*e[5mC])”, under setting [8], the “30 nM FC (GRN mRNA)” value is 1.2 FC, the “60 nM FC (GRN mRNA)” value amounted to 2.6 FC and the “120 nM FC (GRN mRNA)” value was 2.8 FC.
“CO-6381: ASO based on parent ASO CO-3462 (antisense eT*eG*eA*eT*e[5mC]*eA*eG*e[5mC]*eT*eT*eG*eG*eG*e[5mC]*eG*eA*e[5mC]*eT*eG*eA)”: under setting [7], the “30 nM FC (GRN mRNA)” value was found to be 0.8 FC, the “60 nM FC (GRN mRNA)” value came to 0.7 FC and the “120 nM FC (GRN mRNA)” value is given as 1.0 FC.
“CO-4623: ASO designed to target intergenic enhancers (eRNA) (antisense e[5mC]*e[5mC]*eT*eG*eA*e[5mC]*e[5mC]*eT*eG*e[5mC]*e[5mC]*eA*eT*e[5mC]*eT*eA*eT*e[5mC]*eA*eA)”: the “hGRN mRNA FC” value under setting [2] was 1.1 FC.
As to “CO-6432: ASO designed to target an intragenic enhancer RNA (eRNA) (eG*eA*eG*eA*eA*e[5mC]*eG*e[5mC]*eT*eA*e[5mC]*e[5mC]*eA*e[5mC]*eG*eG*eA*e[5mC]*e[5mC]*eT)”, under setting [1], the “hGRN mRNA FC” value is given as 1.0 FC.
